# Columns and labels:
# [1] = pH 7.4
Max. Gelling Temp. [1] [°C],Substance,cell viability (MTT) (NIH3T3 cells)
38,Poly[(isoleucineethylester)(aminomethoxy polyethyleneglycol550)(cysteamine)phosphazene] [Example 21],such a high viability as the cell alone
42,Poly[(isoleucineethylester)(aminomethoxy polyethyleneglycol550)(cysteamine)phosphazene] [Example 22],such a high viability as the cell alone
34,Poly[(isoleucineethylester)(aminomethoxy polyethyleneglycol550)(tyramine)phosphazene] [Example 24],
